Results on four cell lines are retold here after the supplement of paper PMC10307832.

What all share (test): relative viability (nuclei count vs DMSO), 5 days (fraction); higher = more cells survive
Compound in the experiment “OSI-027 + Dasatinib”: COc1cccc2cc(-c3nc([C@H]4CC[C@H](C(=O)O)CC4)n4ncnc(N)c34)[nH]c12 [OSI-027] + Cc1nc(Nc2ncc(C(=O)Nc3c(C)cccc3Cl)s2)cc(N2CCN(CCO)CC2)n1 [Dasatinib] (partner 0.075 µM)
The method in brief: (§1)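 Medians of duplicate plates are given as relative viability. That measure is the nuclei count in treated wells divided by the count in vehicle wells. Counts were taken on 4× images of lung cancer cell lines in 1536-well plates, 5 days after pin-tool dosing the day after seeding with one drug alone or a fixed anchor-drug dose plus five library-drug doses (not always all listed) in √10 steps.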

Compound in the experiment “Alpelisib + Lapatinib”: Cc1nc(NC(=O)N2CCC[C@H]2C(N)=O)sc1-c1ccnc(C(C)(C)C(F)(F)F)c1 [Alpelisib] + CS(=O)(=O)CCNCc1ccc(-c2ccc3ncnc(Nc4ccc(OCc5cccc(F)c5)c(Cl)c4)c3c2)o1 [Lapatinib] (partner 2 µM)
The method in brief: as §1

Compound in the experiment “Alpelisib + Crizotinib”: Cc1nc(NC(=O)N2CCC[C@H]2C(N)=O)sc1-c1ccnc(C(C)(C)C(F)(F)F)c1 [Alpelisib] + C[C@@H](Oc1cc(-c2cnn(C3CCNCC3)c2)cnc1N)c1c(Cl)ccc(F)c1Cl [Crizotinib] (partner 1 µM)
The procedure, abridged: as §1

Compound in the experiment “Alpelisib + Olaparib”: Cc1nc(NC(=O)N2CCC[C@H]2C(N)=O)sc1-c1ccnc(C(C)(C)C(F)(F)F)c1 [Alpelisib] + O=C(c1cc(Cc2n[nH]c(=O)c3ccccc23)ccc1F)N1CCN(C(=O)C2CC2)CC1 [Olaparib] (partner 8 µM)
The procedure, abridged: as §1

Regarding NCI-H1734, the relative viability in the experiment with OSI-027 + Dasatinib (first compound 0.01 µM) was found to be 0.473; with OSI-027 + Dasatinib (first compound 0.03162 µM), 0.408; with OSI-027 + Dasatinib (first compound 0.1 µM), 0.45; with OSI-027 + Dasatinib (first compound 0.3162 µM) it was 0.388; with OSI-027 + Dasatinib (first compound 1 µM), 0.282; with Alpelisib + Lapatinib (first compound 0.04 µM), 1.09. Moreover, the relative viability in the experiment with Alpelisib + Lapatinib (first compound 0.1265 µM) is 0.989; with Alpelisib + Lapatinib (first compound 0.4 µM) it was 1.11; with Alpelisib + Lapatinib (first compound 1.265 µM), 0.771; in the experiment with Alpelisib + Lapatinib (first compound 4 µM), 0.373; in the experiment with Alpelisib + Crizotinib (first compound 0.04 µM), 0.633; with Alpelisib + Crizotinib (first compound 0.1265 µM), 0.605. The relative viability with Alpelisib + Crizotinib (first compound 0.4 µM) was found to be 0.715; with Alpelisib + Crizotinib (first compound 1.265 µM), 0.506; in the experiment with Alpelisib + Crizotinib (first compound 4 µM) it was 0.382; with Alpelisib + Olaparib (first compound 0.04 µM) it was 0.584; with Alpelisib + Olaparib (first compound 0.1265 µM), 0.328; with Alpelisib + Olaparib (first compound 0.4 µM), 0.61. Moreover, the relative viability amounted to 0.425 with Alpelisib + Olaparib (first compound 1.265 µM) and 0.35 in the experiment with Alpelisib + Olaparib (first compound 4 µM).

Consider NCI-H1755, for which the relative viability with OSI-027 + Dasatinib (first compound 0.01 µM) was found to be 0.392; with OSI-027 + Dasatinib (first compound 0.03162 µM), 0.458; with OSI-027 + Dasatinib (first compound 0.1 µM), 0.39; with OSI-027 + Dasatinib (first compound 0.3162 µM), 0.42; with OSI-027 + Dasatinib (first compound 1 µM), 0.229; with Alpelisib + Lapatinib (first compound 0.04 µM), 1.03. Besides, the relative viability with Alpelisib + Lapatinib (first compound 0.1265 µM) is 0.962; in the experiment with Alpelisib + Lapatinib (first compound 0.4 µM), 1.11; with Alpelisib + Lapatinib (first compound 1.265 µM), 0.911; with Alpelisib + Lapatinib (first compound 4 µM) it was 0.851; in the experiment with Alpelisib + Crizotinib (first compound 0.04 µM) it was 0.828; in the experiment with Alpelisib + Crizotinib (first compound 0.1265 µM), 0.819. In addition, the relative viability was 0.966 in the experiment with Alpelisib + Crizotinib (first compound 0.4 µM); 0.801 with Alpelisib + Crizotinib (first compound 1.265 µM); 0.578 with Alpelisib + Crizotinib (first compound 4 µM); 0.928 with Alpelisib + Olaparib (first compound 0.04 µM); 0.892 in the experiment with Alpelisib + Olaparib (first compound 0.1265 µM); 0.917 with Alpelisib + Olaparib (first compound 0.4 µM). Besides, the relative viability with Alpelisib + Olaparib (first compound 1.265 µM) stood at 0.818; in the experiment with Alpelisib + Olaparib (first compound 4 µM), 0.788.

Take NCI-H1792: the relative viability in the experiment with OSI-027 + Dasatinib (first compound 0.01 µM) was 0.664; with OSI-027 + Dasatinib (first compound 0.03162 µM) it was 0.617; with OSI-027 + Dasatinib (first compound 0.1 µM) it was 0.818; with OSI-027 + Dasatinib (first compound 0.3162 µM), 0.7; with OSI-027 + Dasatinib (first compound 1 µM), 0.211; with Alpelisib + Lapatinib (first compound 0.04 µM), 0.923. The relative viability came to 0.796 in the experiment with Alpelisib + Lapatinib (first compound 0.1265 µM); 0.863 with Alpelisib + Lapatinib (first compound 0.4 µM); 0.773 with Alpelisib + Lapatinib (first compound 1.265 µM); 0.532 with Alpelisib + Lapatinib (first compound 4 µM); 1.01 in the experiment with Alpelisib + Crizotinib (first compound 0.04 µM); 0.884 in the experiment with Alpelisib + Crizotinib (first compound 0.1265 µM). Further, the relative viability was determined as 0.983 with Alpelisib + Crizotinib (first compound 0.4 µM); 0.886 with Alpelisib + Crizotinib (first compound 1.265 µM); 0.72 with Alpelisib + Crizotinib (first compound 4 µM); 0.48 with Alpelisib + Olaparib (first compound 0.04 µM); 0.528 with Alpelisib + Olaparib (first compound 0.1265 µM); 0.68 in the experiment with Alpelisib + Olaparib (first compound 0.4 µM). Further, the figures for the relative viability with Alpelisib + Olaparib (first compound 1.265 µM) and with Alpelisib + Olaparib (first compound 4 µM) were 0.36 and 0.205, respectively.

For the cell line NCI-H1915, the relative viability in the experiment with OSI-027 + Dasatinib (first compound 0.01 µM) came to 0.289; with OSI-027 + Dasatinib (first compound 0.03162 µM), 0.307; in the experiment with OSI-027 + Dasatinib (first compound 0.1 µM) it was 0.279; with OSI-027 + Dasatinib (first compound 0.3162 µM), 0.24; with OSI-027 + Dasatinib (first compound 1 µM) it was 0.145; with Alpelisib + Lapatinib (first compound 0.04 µM), 1.01. The relative viability with Alpelisib + Lapatinib (first compound 0.1265 µM) was 0.979; with Alpelisib + Lapatinib (first compound 0.4 µM), 0.957; in the experiment with Alpelisib + Lapatinib (first compound 1.265 µM) it was 0.949; with Alpelisib + Lapatinib (first compound 4 µM) it was 0.944; with Alpelisib + Crizotinib (first compound 0.04 µM), 0.903; with Alpelisib + Crizotinib (first compound 0.1265 µM), 0.936. For the same cell line, the relative viability with Alpelisib + Crizotinib (first compound 0.4 µM) was determined as 0.988; with Alpelisib + Crizotinib (first compound 1.265 µM), 0.78; with Alpelisib + Crizotinib (first compound 4 µM), 0.8; in the experiment with Alpelisib + Olaparib (first compound 0.04 µM), 0.264; with Alpelisib + Olaparib (first compound 0.1265 µM), 0.288; in the experiment with Alpelisib + Olaparib (first compound 0.4 µM) it was 0.303. Also, the relative viability was 0.236 with Alpelisib + Olaparib (first compound 1.265 µM) and 0.235 in the experiment with Alpelisib + Olaparib (first compound 4 µM).
